Assay results reported in publication PMC12473159, “A Comprehensive Functional Analysis of OsPEAMT1 and OsPEAMT2 Genes in Rice (Oryza sativa L. ssp. japonica)” (Plants, 2025).

Tests used:
[1] = biological target: T1, OsPEAMT1 (Oryza sativa, UniProt Q6QA26); assay: LC-MS/MS of phosphocholine formed; format: biochemical; conditions: 200 uM P-EA, 200 uM S-adenosyl-L-methionine, HEPES-KOH pH 9.9, 2 mM EDTA, 30 C, 30 min
T1 construct: gene PEAMT
T1 sequence (Q6QA26 20-499): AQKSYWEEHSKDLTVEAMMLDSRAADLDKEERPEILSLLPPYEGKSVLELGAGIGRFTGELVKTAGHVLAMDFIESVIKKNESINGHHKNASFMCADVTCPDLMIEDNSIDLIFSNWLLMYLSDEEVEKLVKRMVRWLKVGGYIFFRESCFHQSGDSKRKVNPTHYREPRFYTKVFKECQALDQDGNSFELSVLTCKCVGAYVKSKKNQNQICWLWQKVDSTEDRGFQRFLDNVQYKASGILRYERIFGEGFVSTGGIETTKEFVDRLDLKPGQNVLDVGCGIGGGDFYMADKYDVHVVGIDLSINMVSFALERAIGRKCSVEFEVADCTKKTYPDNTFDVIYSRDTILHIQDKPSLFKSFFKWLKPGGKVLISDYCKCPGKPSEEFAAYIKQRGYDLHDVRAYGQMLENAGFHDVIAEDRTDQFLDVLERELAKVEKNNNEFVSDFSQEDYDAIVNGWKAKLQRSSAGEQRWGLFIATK

[2] = biological target: T2, OsPEAMT2 (Oryza sativa, UniProt A0A0P0WPX7); assay: LC-MS/MS of phosphocholine formed; format: biochemical; conditions: 200 uM P-EA, 200 uM S-adenosyl-L-methionine, HEPES-KOH pH 9.9, 2 mM EDTA, 30 C, 30 min
T2 construct: gene Os05g0548900; forward primer encodes MDAVAAN
T2 sequence (A0A0P0WPX7 1-495): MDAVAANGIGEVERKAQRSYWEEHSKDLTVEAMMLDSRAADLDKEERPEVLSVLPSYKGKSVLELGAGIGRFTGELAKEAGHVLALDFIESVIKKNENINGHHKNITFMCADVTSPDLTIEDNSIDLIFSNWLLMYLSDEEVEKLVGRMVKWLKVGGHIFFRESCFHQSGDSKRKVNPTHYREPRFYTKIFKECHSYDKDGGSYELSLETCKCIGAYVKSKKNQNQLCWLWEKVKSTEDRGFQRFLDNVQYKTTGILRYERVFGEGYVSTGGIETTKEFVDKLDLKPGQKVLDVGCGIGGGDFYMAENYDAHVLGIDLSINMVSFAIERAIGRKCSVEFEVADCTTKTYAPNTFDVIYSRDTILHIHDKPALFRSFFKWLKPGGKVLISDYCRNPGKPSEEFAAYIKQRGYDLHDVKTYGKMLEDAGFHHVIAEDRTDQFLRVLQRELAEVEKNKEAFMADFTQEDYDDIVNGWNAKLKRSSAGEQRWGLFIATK

NCCOP(=O)(O)O [P-EA]
LC-MS/MS of phosphocholine formed [1]: both recombinant OsPEAMT1 and OsPEAMT2 have the activity to catalyze substrate P-EA producing P-Cho
LC-MS/MS of phosphocholine formed [2]: both recombinant OsPEAMT1 and OsPEAMT2 have the activity to catalyze substrate P-EA producing P-Cho
